According to ChEMBL document CHEMBL1144106, “Highly oxygenated pseudopterane and cembranolide diterpenes from the Caribbean sea feather Pseudopterogorgia bipinnata” (1999):
Calls of active or inactive are those of the source. The calls are words filed in the database; no cut-off is given here.

What was measured:
[1] = system: Mycobacterium tuberculosis; assay: Antituberculosis activity against Mycobacterium tuberculosis H37Rv at 12.5 ug/mL; format: functional, organism-based
CCRF-CEM = assay: Cytotoxicity against human CCRF-CEM cells; format: functional

SMILES	Activity [1]	GI50 (CCRF-CEM) [nM]
C=C(C)[C@H]1C2=CC(C)=C(O2)[C@@H](O)[C@H](C(=C)C)CCC2=C[C@H]1OC2=O	inactive	
C=C(C)[C@@H]1CCC2=C[C@H](C/C(C)=C\C3=CC(C)=C(O3)[C@H]1O)OC2=O	inactive	
C=C(C)[C@H]1C(=O)[C@H]2O[C@@]2(C)C(=O)[C@@H](O)[C@H](C(=C)C)CCC2=C[C@H]1OC2=O	inactive	
C=C(C(=O)OC)[C@@H]1C[C@@H](OC(C)=O)C2=C[C@H](C[C@@]3(C)O[C@@H]3C3=CC(C)=C(O3)[C@H]1OC(C)=O)OC2=O [BIPINNATIN I]		42.7
C=C(C)[C@@H]1C[C@H]2O[C@](O)(C/C(C)=C\C(=O)/C=C(/C)C[C@@H]3OC(=O)[C@]24O[C@@H]34)[C@H]1O	inactive	
